Results reported in patent US6200966A, “Compositions for inhibiting airway wall inflammation” (Amrad Operations Pty. Ltd., priority 1996, dated 2001).

Columns and labels:
[1] = tested on: human cultured airway smooth muscle cells; experiment: Protein synthesis: [3H]-leucine incorporation; format: cell-based; conditions: for 5HT-stimulated increase in protein synthesis: 5HT 10 nM, 0.3-10 μM
Description: Human bronchial airway smooth muscle was obtained from macroscopically normal lung resection specimens from lung transplant donors or recipients provided by the Alfred Hospital (Melbourne). Cultures were prepared as previously described in detail (Tomlinson et al., 1994). Briefly, the tissue was partially digested in Dulbecco's Modified Eagle's Medium (DMEM), [supplemented with 2 mM L-glutamine, 100 μg/ml streptomycin, 100 U/ml penicillin-G, 2 μg/ml amphotericin B, and 0.25% w/v bovine serum albumin (BSA)] containing 3 mg/ml collagenase for 30 minutes at 37° C. and approximately 0.5 g smooth muscle was further digested by a 2 hour incubation in 0.5 mg/ml elastase, followed by an 18 hour incubation in collagenase (3 mg/ml) at 37° C. Cell suspensions ere centrifuged (10 min, 100×g, 25° C.), washed three times in supplemented DMEM, resuspended in 25 ml DMEM containing 10% (v/v) heat-inactivated foetal calf serum (FCS), seeded into 25 cm^2 Falcon culture flasks and incubated (37° C., 5% CO2) for 7 to 10 days until monolayer confluence was reached. Cells were then harvested weekly by 10 min exposure to 0.5% trypsin, 1 mM EDTA and passaged at a 1:3 split ratio into 75 cm^2 Falcon culture flaskes. Cells at passage numbers 3 to 15 were used for experiments.
Cells were subcultured into 24-well plates at a 1:3 ratio and allowed to grow to monolayer confluency over a 72-96 hour period in an atmosphere of 5% CO2 in air at 37° C. The serum-containing medium was replaced with serum-free DMEM for a 24 hour period to produce growth arrest. In some experiments, the cells were pretreated with 2-methoxyestradiol 30 min before the addition of mitogen. The stimulant (mitogen) was added to the appropriate wells together with a supplement containing insulin, transferrin, and selenium (Monomed A, 1% v/v). Monomed A was added to provide progression factors which are essential for the mitogenic activity of growth factors such as thrombin, epidermal growth factor (EGF) and basic fibroblast growth factor (bFGF) (Stewart et al., 1995a). Mitogens and inhibitors were left in contact with cells from the time of addition until the end of the experiment, unless indicated otherwise. Cells were incubated for 24 hours (37° C., 5% CO2) before being pulsed with [^3 H]-thymidine (1 μCi/ml for four hours) to measure incorporation of radiolabel into newly synthesized DNA, according to out previous study (Stewart et al., 1995). Incorporation of radioactivity was determined by filtration at the end of the pulse-labelling period. The medium containing the radioactivity was aspirated and the cells were lysed by addition of 200 μl of 0.1M NaOH. The DNA was immobilised by filtration in a binding harvester (Packard Filtermate 196) on glass fibre filters (Packard, standard), which were then washed with 3×3 ml volumes of distilled water and a single 1 ml volume of 100% ethanol. The dried filters were counted in a Packard Topcount liquid scintillation counter. Protein synthesis rates were determined in experiments of analogous design to those described above, but [^3 H]-leucine replaced [^3 H]-thymidine in the pulsing incubation of 4 hours. Furthermore, in experiments to determine the effects of mitogens and 2-methoxyestradiol on the rate of protein synthesis, incubations with mitogen were carried out for a period of 48 hours. The longer duration of these experiments was required to allow sufficient time for cell division to occur.
Each treatment in an individual experiment was carried out in quadruplicate for DNA and protein synthesis experiments. Each experiment was performed in at least three different cultures obtained from three different individuals. For cell counting, single incubations were carried out in three cultures. Results are presented as grouped data from multiple cultures and are expressed as mean ±S. E. of n cultures. The degree of increment was calculated by dividing the response of treated wells by that of the control wells on the same 24-well plate.

[2] = tested on: human cultured airway smooth muscle cells; experiment: Protein synthesis: [3H]-leucine incorporation; format: cell-based; conditions: for activity at 0.3 µM / activity at 1 µM / activity at 3 µM / activity at 10 µM: mean ± SEM
vascular smooth muscle = conditions: Goyache et al., 1995; cited from earlier work
tubulin = conditions: literature; cited from earlier work
[3] = tested on: certain transformed cell lines; conditions: Lottering et al., 1992; cited from earlier work
[4] = tested on: Human polymorphonuclear leukocytes; experiment: Phagocytosis: radioiodination of zymosan particles (125I uptake); format: cell-based
Description: Data are expressed as percentage of ^125 I incorporation into glass
fiber-filterable material. Assays were carried out using 1 ×

smooth muscle = conditions: Goyache et al., 1995; cited from earlier work
[5] = Homo sapiens, 5HT (10 nM)-stimulated cells
[6] = Homo sapiens, unstimulated cells

## COc1cc2c(cc1O)CC[C@@H]1[C@@H]2CC[C@]2(C)[C@@H](O)CC[C@@H]12 [2-methoxyestradiol, 1,3,5[10]-estratriene-2,3,17-triol 2-methylether]
[1]
  5HT-stimulated increase in protein synthesis: decreased
[1]; listed as 2-methoxyoestradiol
  5HT-stimulated increase in protein synthesis: inhibited
[1]; unstimulated, 0.3 μM
  [3H]-leucine incorporation, compound alone, 0.3 μM: small stimulation
[2]; 10 μM, thrombin or bFGF
  [3H]-leucine incorporation at 10 μM: no significant inhibitory effect
[2]; [5]
  activity at 0.3 µM: 91 ± 5%
  activity at 1 µM: 62 ± 2%
  activity at 3 µM: 56 ± 2%
  activity at 10 µM: 51 ± 6%
[2]; [6]
  activity at 0.3 µM: 135 ± 3%
  activity at 1 µM: 84 ± 4%
  activity at 3 µM: 77 ± 3%
  activity at 10 µM: 113 ± 9%
[2]; Homo sapiens, at 3 μM, thrombin, FCS 1% or bFGF, read-out: maximum percentage reduction of [3H]-leucine incorporation
  inhibition at 3 µM: ~30%
[2]; Homo sapiens, thrombin (0.3 U/ml), FCS (1% v/v) or bFGF (300 pM), 48 h, read-out: threshold concentration for inhibition of [3H]-leucine incorporation
  minimal effective concentration: 1 µM
[2]; unstimulated, 10 μM
  [3H]-leucine incorporation, compound alone, 10 μM: no effect
[2]; unstimulated, 1 and 3 μM
  [3H]-leucine incorporation, compound alone, 1 and 3 μM: small inhibitory effects
Vascular smooth muscle
  vascular smooth muscle relaxation: relaxation of vascular smooth muscle
tubulin
  microtubule disruption / tubulin polymerisation: microtubule disruption via binding at the colchicine site on tubulin
[3]
  proliferation of transformed cell lines: inhibits proliferation
[4]; 3 μM, PHS (pooled human serum), control (basal 2.13)
  125I uptake: 1.87 percentage of ^125 I incorpora
[4]; 3 μM, PHS, zymosan (basal 4.33)
  125I uptake: 3.27 percentage of ^125 I incorpora
[4]; 3 μM, no PHS, control (basal 1.80)
  125I uptake: 1.97 percentage of ^125 I incorpora
[4]; 3 μM, no PHS, zymosan (basal 2.83)
  125I uptake: 1.97 percentage of ^125 I incorpora
[4]; 10 μM, PHS, control (basal 2.13)
  125I uptake: 1.75 percentage of ^125 I incorpora
[4]; 10 μM, PHS, zymosan (basal 4.33)
  125I uptake: 1.65 percentage of ^125 I incorpora
[4]; 10 μM, no PHS, control (basal 1.80)
  125I uptake: 2.05 percentage of ^125 I incorpora
[4]; 10 μM, no PHS, zymosan (basal 2.83)
  125I uptake: 1.80 percentage of ^125 I incorpora
[4]; 3 and 10 μM
  radioiodination of zymosan particles by PMN (phagocytosis): significant effects being observed at both 3 and 10 μM
[4]; human peripheral blood
  phagocytic activity of polymorphonuclear leukocytes: reduction of phagocytic activity
Smooth muscle
  calcium influx into smooth muscle: decrease calcium influx
